Measured values: ChEMBL document CHEMBL5512640, “Discovery of novel itaconimide-based derivatives as potent HDAC inhibitors for the efficient treatment of prostate cancer” (Eur J Med Chem, 2024)
Active and inactive are the calls of the source. The calls are words filed in the database; no cut-off is given here.

Legend:
[1] = target: Histone deacetylase 1 (Homo sapiens, UniProt Q13547); test: Inhibition of human HDAC1 incubated for 10 mins followed by fluorogenic substrate addition by fluorescence based analysis
Chain of Histone deacetylase 1 (Q13547 whole entry): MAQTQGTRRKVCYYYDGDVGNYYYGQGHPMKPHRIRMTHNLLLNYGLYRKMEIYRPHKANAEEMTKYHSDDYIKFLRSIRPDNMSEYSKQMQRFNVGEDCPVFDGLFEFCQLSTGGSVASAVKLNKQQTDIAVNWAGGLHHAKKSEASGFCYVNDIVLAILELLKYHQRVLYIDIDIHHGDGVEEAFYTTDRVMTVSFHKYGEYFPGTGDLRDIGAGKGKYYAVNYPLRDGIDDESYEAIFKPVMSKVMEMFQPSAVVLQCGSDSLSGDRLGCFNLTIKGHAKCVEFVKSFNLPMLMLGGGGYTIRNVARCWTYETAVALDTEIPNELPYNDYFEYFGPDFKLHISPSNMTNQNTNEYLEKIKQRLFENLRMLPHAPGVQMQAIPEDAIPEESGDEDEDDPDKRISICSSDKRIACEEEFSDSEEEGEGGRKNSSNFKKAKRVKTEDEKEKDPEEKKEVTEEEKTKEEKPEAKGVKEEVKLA

[2] = test system: DU-145; test: Antiproliferative activity against human DU-145 cells incubated for 96 hrs by MTT assay; assay type: functional, cell-based; settings: DU-145, 96 h
[3] = test system: PC-3; test: Antiproliferative activity against human PC-3 cells incubated for 96 hrs by MTT assay; assay type: functional, cell-based; settings: PC-3, 96 h
[4] = test system: DU-145; test: Induction of apoptosis in human DU-145 cells assessed as apoptotic rate at 1.6 uM measured after 72 hrs by annexin V-FITC and PI staining based flow cytometry analysis relative to control; assay type: functional
[5] = test system: DU-145; test: Downregulation of HDAC6 expression in human DU-145 cells at 0.8 uM incubated for 24 hrs by Western blot analysis; assay type: functional, cell-based
[6] = test system: A549; test: Antiproliferative activity against human A549 cells incubated for 96 hrs by MTT assay; assay type: functional, cell-based; settings: A549, 96 h
[7] = test system: NCI-H1650; test: Antiproliferative activity against human NCI-H1650 cells incubated for 96 hrs by MTT assay; assay type: functional, cell-based; settings: NCI-H1650, 96 h
[8] = test system: NCI-H446; test: Antiproliferative activity against human NCI-H446 cells incubated for 96 hrs by MTT assay; assay type: functional, cell-based; settings: NCI-H446, 96 h
[9] = target: Histone deacetylase 11 (Homo sapiens, UniProt Q96DB2); test: Inhibition of human HDAC11 incubated for 10 mins followed by fluorogenic substrate addition by fluorescence based analysis
Chain of Histone deacetylase 11 (Q96DB2 whole entry): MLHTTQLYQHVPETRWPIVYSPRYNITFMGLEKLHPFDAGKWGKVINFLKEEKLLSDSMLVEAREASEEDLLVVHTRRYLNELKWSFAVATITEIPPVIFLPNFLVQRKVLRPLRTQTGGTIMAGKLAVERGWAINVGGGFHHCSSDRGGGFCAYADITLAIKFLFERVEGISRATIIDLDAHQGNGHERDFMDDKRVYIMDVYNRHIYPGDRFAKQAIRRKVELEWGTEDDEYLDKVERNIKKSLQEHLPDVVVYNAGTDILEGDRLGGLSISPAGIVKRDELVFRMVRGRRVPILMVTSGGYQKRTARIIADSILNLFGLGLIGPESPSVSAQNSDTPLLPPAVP

[10] = test system: HCT-116; test: Antiproliferative activity against human HCT-116 cells incubated for 96 hrs by MTT assay; assay type: functional, cell-based; settings: HCT-116, 96 h
[11] = test system: MCF7; test: Antiproliferative activity against human MCF7 cells incubated for 96 hrs by MTT assay; assay type: functional, cell-based; settings: MCF7, 96 h
[12] = test system: HT-29; test: Antiproliferative activity against human HT-29 cells incubated for 96 hrs by MTT assay; assay type: functional, cell-based; settings: HT-29, 96 h
[13] = test system: MDA-MB-231; test: Antiproliferative activity against human MDA-MB-231 cells incubated for 96 hrs by MTT assay; assay type: functional, cell-based; settings: MDA-MB-231, 96 h
[14] = test system: LNCaP; test: Antiproliferative activity against human LNCaP cells incubated for 96 hrs by MTT assay; assay type: functional, cell-based
[15] = target: Polyamine deacetylase HDAC10 (Homo sapiens, UniProt Q969S8); test: Inhibition of human HDAC10 incubated for 10 mins followed by fluorogenic substrate addition by fluorescence based analysis
Chain of Polyamine deacetylase HDAC10 (Q969S8 whole entry): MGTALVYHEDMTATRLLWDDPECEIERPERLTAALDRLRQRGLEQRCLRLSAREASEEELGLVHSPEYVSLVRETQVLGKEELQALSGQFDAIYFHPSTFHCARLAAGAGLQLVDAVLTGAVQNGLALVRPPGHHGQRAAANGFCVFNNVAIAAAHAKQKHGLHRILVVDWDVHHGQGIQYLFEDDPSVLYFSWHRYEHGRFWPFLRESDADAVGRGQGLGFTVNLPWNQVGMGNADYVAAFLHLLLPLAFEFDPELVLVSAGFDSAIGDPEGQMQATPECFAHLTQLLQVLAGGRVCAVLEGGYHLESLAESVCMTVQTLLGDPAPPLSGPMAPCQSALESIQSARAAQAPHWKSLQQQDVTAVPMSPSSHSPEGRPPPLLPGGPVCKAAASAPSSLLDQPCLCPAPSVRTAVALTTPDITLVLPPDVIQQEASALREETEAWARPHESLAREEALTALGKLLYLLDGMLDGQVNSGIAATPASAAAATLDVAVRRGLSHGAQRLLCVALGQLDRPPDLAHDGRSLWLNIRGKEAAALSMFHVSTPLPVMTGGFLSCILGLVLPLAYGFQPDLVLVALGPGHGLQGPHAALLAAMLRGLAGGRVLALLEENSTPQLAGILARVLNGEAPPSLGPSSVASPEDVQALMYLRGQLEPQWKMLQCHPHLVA

[16] = test system: DU-145; test: Antitumor activity against human DU-145 cells xenografted in Balb/c nude mouse model assessed as tumor growth inhibition at 8 mg/kg, ip administered once daily for 40 days relative to control; assay type: functional; settings: DU-145, 960 h, time 40 day, read-out: TGI
[17] = Toxicity in Balb/c mouse assessed as effect on body weight at 8 mg/kg, ip measured upto 40 days; assay type: organism-based; settings: in vivo, 960 h, time < 40 day
[18] = Toxicity in Balb/c mouse assessed as mortality at 8 mg/kg, ip measured upto 40 days; assay type: organism-based; settings: in vivo, 960 h, time < 40 day

## O=C(CCCCCCN1C(=O)C/C(=C\c2cccc(I)c2)C1=O)NO
[1]
  IC50: 28.7 nM
[2]
  IC50: 910 nM
[3]
  IC50: 1470 nM

## O=C(CCCCCCC(=O)Nc1ccccc1)NO [VORINOSTAT]
[4]
  Activity: 73.76%
[5]
  Activity: Active

## O=C(CCCCCCCN1C(=O)C/C(=C\c2ccccc2)C1=O)NO
[1]
  IC50: 25.2 nM
[2]
  IC50: 1560 nM
[3]
  IC50: 5010 nM

## Cc1ccccc1/C=C1\CC(=O)N(CCCCCCC(=O)NO)C1=O
[1]
  IC50: 21.7 nM
[2]
  IC50: 710 nM
[3]
  IC50: 930 nM

## O=C(CCCCCCN1C(=O)C/C(=C\c2ccccc2)C1=O)NO
[1]
  IC50: 12.9 nM
[2]
  IC50: 500 nM
[3]
  IC50: 820 nM

## O=C(CCCCCCN1C(=O)C/C(=C\c2ccc(Cl)cc2)C1=O)NO
[1]
  IC50: 23.4 nM
[2]
  IC50: 570 nM
[3]
  IC50: 890 nM

## O=C(CCCCCCN1C(=O)C/C(=C\c2cccs2)C1=O)NO
[1]
  IC50: 25.1 nM
[2]
  IC50: 540 nM
[3]
  IC50: 910 nM

## CCOc1ccccc1/C=C1\CC(=O)N(CCCCCCC(=O)NO)C1=O
[1]
  IC50: 16.7 nM
[2]
  IC50: 340 nM
[3]
  IC50: 890 nM

## COc1cccc(/C=C2\CC(=O)N(CCCCCCC(=O)NO)C2=O)c1
[1]
  IC50: 18.5 nM
[2]
  IC50: 400 nM
[3]
  IC50: 920 nM

## O=C(CCCCCCN1C(=O)C/C(=C\c2cccc(Br)c2)C1=O)NO
[1]
  IC50: 19.1 nM
[2]
  IC50: 650 nM
[3]
  IC50: 1060 nM

## Cc1ccc(/C=C2\CC(=O)N(CCCCCCC(=O)NO)C2=O)cc1
[1]
  IC50: 25.5 nM
[2]
  IC50: 310 nM
[3]
  IC50: 2200 nM

## O=C(CCCCN1C(=O)C/C(=C\c2ccccc2)C1=O)NO
[1]
  IC50: 136 nM
[2]
  IC50: > 20000 nM
[3]
  IC50: > 20000 nM

## Nc1cc(F)ccc1NC(=O)CCCCCCN1C(=O)C/C(=C\c2ccccc2)C1=O
[1]
  IC50: 144 nM
[2]
  IC50: > 20000 nM
[3]
  IC50: > 20000 nM

## COc1cc(/C=C2\CC(=O)N(CCCCCCC(=O)NO)C2=O)cc(OC)c1OC
[1]
  IC50: 27.5 nM
[2]
  IC50: 1030 nM
[3]
  IC50: 1710 nM

## Nc1cc(F)ccc1NC(=O)CCCCN1C(=O)C/C(=C\c2ccccc2)C1=O
[1]
  IC50: 173 nM
[2]
  IC50: > 20000 nM
[3]
  IC50: > 20000 nM

## O=C(CCCCCCN1C(=O)C/C(=C\c2cccc(F)c2)C1=O)NO
[1]
  IC50: 75.2 nM
[2]
  IC50: 660 nM
[3]
  IC50: 890 nM

## Nc1cc(F)ccc1NC(=O)c1ccc(CNC(=O)/C=C/c2cccnc2)cc1 [TUCIDINOSTAT]
[6]
  IC50: 9850 nM
[7]
  IC50: > 20000 nM
[8]
  IC50: 240 nM
[9]
  IC50: > 5000 nM
[10]
  IC50: 920 nM
[11]
  IC50: > 20000 nM
[12]
  IC50: 4570 nM
[13]
  IC50: 1860 nM
[14]
  IC50: 2890 nM
[2]
  IC50: 1490 nM
[3]
  IC50: 5770 nM
[15]
  IC50: 456 nM

## O=C(CCCCCCN1C(=O)C/C(=C\c2ccccc2Cl)C1=O)NO
[1]
  IC50: 19.3 nM
[2]
  IC50: 480 nM
[3]
  IC50: 1440 nM

## O=C(CCCCCCN1C(=O)C/C(=C\c2cccc(Cl)c2)C1=O)NO
[1]
  IC50: 18.8 nM
[2]
  IC50: 380 nM
[3]
  IC50: 1700 nM

## Nc1cc(F)ccc1NC(=O)CCCCCN1C(=O)C/C(=C\c2ccccc2)C1=O
[1]
  IC50: 105 nM
[2]
  IC50: 11100 nM
[3]
  IC50: > 20000 nM

## O=C(CCCCCCN1C(=O)C/C(=C\c2ccc(Cl)c(Cl)c2)C1=O)NO
[1]
  IC50: 27.9 nM
[2]
  IC50: 440 nM
[3]
  IC50: 1690 nM

## N#Cc1ccccc1/C=C1\CC(=O)N(CCCCCCC(=O)NO)C1=O
[1]
  IC50: 40.1 nM
[2]
  IC50: 740 nM
[3]
  IC50: 870 nM

## O=C(CCCN1C(=O)C/C(=C\c2ccccc2)C1=O)NO
[1]
  IC50: 182 nM
[2]
  IC50: > 20000 nM
[3]
  IC50: > 20000 nM

## CN(C)c1ccc(/C=C2\CC(=O)N(CCCCCCC(=O)NO)C2=O)cc1
[1]
  IC50: 26.7 nM
[2]
  IC50: 920 nM
[3]
  IC50: 1750 nM

## COc1ccc(/C=C2\CC(=O)N(CCCCCCC(=O)NO)C2=O)cc1OC
[1]
  IC50: 24.7 nM
[2]
  IC50: 450 nM
[3]
  IC50: 880 nM

## O=C(NO)c1ccc(CN2C(=O)C/C(=C\c3ccccc3)C2=O)cc1
[1]
  IC50: 32.9 nM
[2]
  IC50: 2540 nM
[3]
  IC50: 7820 nM

## COc1ccc(/C=C2\CC(=O)N(CCCCCCC(=O)NO)C2=O)cc1
[1]
  IC50: 13 nM
[2]
  IC50: 500 nM
[3]
  IC50: 890 nM

## Nc1cc(F)ccc1NC(=O)CCCN1C(=O)C/C(=C\c2ccccc2)C1=O
[1]
  IC50: 231 nM
[2]
  IC50: > 20000 nM
[3]
  IC50: > 20000 nM

## O=C(CCCCCCN1C(=O)C/C(=C\c2ccc(C(F)(F)F)cc2)C1=O)NO
[1]
  IC50: 33.8 nM
[2]
  IC50: 1220 nM
[3]
  IC50: 1830 nM

## COc1ccc(Br)cc1/C=C1\CC(=O)N(CCCCCCC(=O)NO)C1=O
[1]
  IC50: 78.1 nM
[2]
  IC50: 460 nM
[3]
  IC50: 1130 nM

## C=C(CC(N)=O)C(N)=O
[2]
  IC50: 14800 nM
[3]
  IC50: 9990 nM

## O=C(CCCCCCN1C(=O)C/C(=C\c2ccccc2O)C1=O)NO
[1]
  IC50: 19.4 nM
[2]
  IC50: 1720 nM
[3]
  IC50: 1930 nM

## CC(C)c1ccc(/C=C2\CC(=O)N(CCCCCCC(=O)NO)C2=O)cc1
[1]
  IC50: 28.6 nM
[2]
  IC50: 1350 nM
[3]
  IC50: 1820 nM

## CC(=O)O[C@@]12CO[C@@H]1C[C@H](O)[C@@]1(C)C(=O)[C@H](O)C3=C(C)[C@@H](OC(=O)[C@H](O)[C@@H](NC(=O)OC(C)(C)C)c4ccccc4)C[C@@](O)([C@@H](OC(=O)c4ccccc4)[C@H]21)C3(C)C [DOCETAXEL ANHYDROUS]
[16]
  inhibition in vivo at 8 mg/kg: 13.3%
[17]
  Activity: Toxic
[18]
  Activity: Toxic

## O=C(CCCCCN1C(=O)C/C(=C\c2ccccc2)C1=O)NO
[1]
  IC50: 32.2 nM
[2]
  IC50: 1490 nM
[3]
  IC50: 4270 nM
